The record followed here is PMC10247784, “Physiological activation of human and mouse bitter taste receptors by bile acids” (Communications Biology, 2023).

The experiment deals with mouse Tas2rs. The experiment is described as follows: Calcium imaging screening of 34 mouse bitter taste receptors. The format is cell-based. Particulars: screening of 34 mouse receptors; listed as CDCA. As to the method: This set of bile acids was chosen because of their commercial availability in high purities, their diversity within the class of bile acids and their previous detection and quantitation in human blood. Stock solutions were prepared in DMSO. […] Maximal applied concentrations are due to solubility problems or receptor-independent artefacts during measurement at high bile acid concentrations (Table 1, Table 2)[12],[58]. […]
Cells were loaded using the calcium-sensitive fluorescent dye Fluo-4-AM (Abcam, Cambridge, Great Britain) in the presence of 2.5 mM probenecid (Sigma-Aldrich, Steinheim, Germany) the day after transfection[13],[41]. […] For automated agonist application and measurement of fluorescence changes, a FLIPR^TETRA device (Molecular Devices, San José, United States) was used. […]
Measured data were negative control corrected by subtracting the signal of the mock-transfected cells and exported to Microsoft Excel using the FLIPR software ScreenWorks 4.2. In Microsoft Excel software, standardization of maximum fluorescence intensities to the basal fluorescence and normalization to the buffer-only control was done to calculate the relative fluorescence changes (ΔF/F). […]

“Also recorded” adds a separate entry of the source.

In the case of `C[C@H](CCC(=O)O)[C@H]1CC[C@H]2[C@@H]3[C@H](O)C[C@@H]4C[C@H](O)CC[C@]4(C)[C@H]3CC[C@]12C` [Chenodeoxycholic Acid, chenodeoxycholic acid], the “Response of mouse Tas2rs” value is reported as “did not activate any; also recorded: did not obtain any response”.
